# Assay results reported in patent publication US20020198315A1, “Salts of peptides with carboxy-terminated polyesters” (priority 1992, published 2002).
# Key:
# [1] = cited from earlier work
# [2] = Dissolution / solubility in dichloromethane; format: physicochemical
# Method: To this solution was added trifluoroacetic acid (50 μl), and the mixture was stirred vigorously.
# The drug solution was added to the copolymer solution and was mixed thoroughly. This mixture was then added dropwise to liquid nitrogen to freeze it as small beads. The solid material was freeze dried for two days using an Edwards high vacuum freeze drier, and the dried material was further dried at 50-55° C. in a vacuum oven for 24 hours.
# The peptide known as Substance P, in the form of its acetate salt (ex Sigma, 2 mg) was added to dichloromethane (3 ml) and thoroughly agitated.
# Lys^8-vasopressin acetate salt (2 mg, ex Sigma) was added to dichloromethane (3 ml) and agitated.
# (i) Dichloromethane (4 ml) was added to a freeze-dried preparation of ZD6003 (39.72 mg).
# A lactide/glycolide copolymer (75/25, 364.1 mg, Mw=16,800 by size exclusion chromatography, polydispersity=2.2, ex Boehringer Ingelheim) was added.
compound,measurement,setting,value
CC(C)C[C@H](NC(=O)[C@@H](COC(C)(C)C)NC(=O)[C@H](Cc1ccc(O)cc1)NC(=O)[C@H](CO)NC(=O)[C@H](Cc1c[nH]c2ccccc12)NC(=O)[C@H](Cc1cnc[nH]1)NC(=O)[C@@H]1CCC(=O)N1)C(=O)N[C@@H](CCCNC(=N)N)C(=O)N1CCC[C@H]1C(=O)NNC(N)=O [Goserelin acetate],"goserelin in benzyl benzoate supernatant, in words","40° C., stirred, aliquots after 2 and 9 Days, limit of detection 0.2 μg/ml",No goserelin was detectable in either sample
same,equilibrium solubility of goserelin in benzyl benzoate (estimated),at 40° C.,less than 0.2 μg/mg
same,"solubility in benzyl benzoate, in words",lipophilic solvents such as benzyl benzoate,not soluble
"CC(C)C[C@H](NC(=O)[C@@H](COC(C)(C)C)NC(=O)[C@H](Cc1ccc(O)cc1)NC(=O)[C@H](CO)NC(=O)[C@H](Cc1c[nH]c2ccccc12)NC(=O)[C@H](Cc1cnc[nH]1)NC(=O)[C@@H]1CCC(=O)N1)C(=O)N[C@@H](CCCNC(=N)N)C(=O)N1CCC[C@H]1C(=O)NNC(N)=O [goserelin, [D-Ser(Bu^t)^6, Azgly^10]-LHRH]",metabolic half-life,[1],4 to 6 h
Lys^8-vasopressin acetate salt,"behaviour in dichloromethane (dissolves or not), in words",[2],showed no indication of dissolving
Substance P,"behaviour in dichloromethane (dissolves or not), in words",[2],showed no indication of dissolving
"[Het^−1, Arg^11, Ser^17,27,60,65] human G-CSF (granulocyte-colony stimulating factor) modified with polyethylene glycol 5000 [ZD6003]","behaviour in dichloromethane (dissolves or not), in words",[2],opaque dispersion of drug in the solvent
